Target: T1, hSTING (Homo sapiens, UniProt Q86WV6, G230A/H232R/R293Q/R71H)
T1 construct: host or cells: THP1-Dual KO-IFNAR2 cells
Experiment: STING reporter assay (luciferase) in THP1-Dual KO-IFNAR2 cells stimulated with 2'3'cGAMP
Type: cell-based
Settings: 2'3'cGAMP 15 μM, 24 h, luciferase reporter activity
Experimental: STING pathway activation by the compounds described herein is measured using THP1-Dual™ cells (KO-IFNAR2).
THP1-Dual™ KO-IFNAR2 Cells (obtained from invivogen) are maintained in RPMI, 10% FCS, 5 ml P/S, 2 mM L-glut, 10 mM Hepes, and 1 mM sodium pyruvate.
Compounds are spotted in empty 384 well tissue culture plates (Greiner 781182) by Echo for a final concentration of 0.0017-100 μM. Cells are plated into the TC plates at 40 μL per well, 2×10E6 cells/mL. For activation with STING ligand, 2′3′cGAMP (MW 718.38, obtained from Invivogen), is prepared in Optimem media.
The following solutions are prepared for each 1×384 plate: • Solution A: 2 mL Optimem with one of the following stimuli: • 60 uL of 10 mM 2′3′cGAMP->150 μM stock • Solution B: 2 mL Optimem with 60 μL Lipofectamine 2000->Incubate 5 min at RT
2 mL of solution A and 2 ml Solution B is mixed and incubated for 20 min at room temperature (RT). 20 uL of transfection solution (A+B) is added on top of the plated cells, with a final 2′3′cGAMP concentration of 15 μM. The plates are then centrifuged immediately at 340 g for 1 minute, after which they are incubated at 37° C., 5% CO2, >98% humidity for 24 h. Luciferase reporter activity is then measured. EC50 values are calculated by using standard methods known in the art.
Luciferase reporter assay: 10 μL of supernatant from the assay is transferred to white 384-plate with flat bottom and squared wells. One pouch of QUANTI-Luc™ Plus us dissolved in 25 mL of water. 100 μL of QLC Stabilizer per 25 mL of QUANTI-Luc™ Plus solution is added. 50 μL of QUANTI-Luc™ Plus/QLC solution per well is then added. Luminescence is measured on a Platereader (e.g., Spectramax I3X (Molecular Devices GF3637001)).
Luciferase reporter activity is then measured. EC50 values are calculated by using standard methods known in the art.

T1 sequence (Q86WV6 whole entry R71H/G230A/H232R/R293Q): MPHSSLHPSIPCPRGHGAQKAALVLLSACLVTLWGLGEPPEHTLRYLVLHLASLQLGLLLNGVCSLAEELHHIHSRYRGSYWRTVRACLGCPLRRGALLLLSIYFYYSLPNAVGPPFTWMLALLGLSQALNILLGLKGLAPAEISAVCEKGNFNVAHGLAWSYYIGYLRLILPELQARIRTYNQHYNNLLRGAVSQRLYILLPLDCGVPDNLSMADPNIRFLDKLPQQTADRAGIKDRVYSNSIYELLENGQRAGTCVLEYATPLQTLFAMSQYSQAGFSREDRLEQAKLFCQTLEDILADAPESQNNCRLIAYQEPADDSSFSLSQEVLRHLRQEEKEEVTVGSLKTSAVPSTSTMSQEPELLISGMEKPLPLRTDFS

SMILES	EC50
O=C(Nc1ccc(N2CC3(C2)CC(F)(F)C3)nc1)Nc1c[nH]c2ccc(Cl)cc12 [Compound 155, 1-(5-chloro-1H-indol-3-yl)-3-(6-(6,6-difluoro-2-azaspiro[3.3]heptan-2-yl)pyridin-3-yl)urea]	40 to 200 nM
Cc1cc(NC(=O)Nc2c[nH]c3ccc(Cl)cc23)cnc1C1CCC(F)(F)CC1 [Compound 156, 1-(5-chloro-1H-indol-3-yl)-3-(6-(4,4-difluorocyclohexyl)-5-methylpyridin-3-yl)urea]	40 to 200 nM
O=C(Nc1cnc(C2CCC(F)(F)CC2)c(Cl)c1)Nc1c[nH]c2ccc(Cl)cc12 [Compound 157, 1-(5-chloro-1H-indol-3-yl)-3-(5-chloro-6-(4,4-difluorocyclohexyl)pyridin-3-yl)urea]	40 to 200 nM
C[C@@H]1CN(c2ncc(NC(=O)Nc3c[nH]c4cc(F)c(F)cc34)cc2Cl)CCO1 [Compound 158, (R)-1-(5-chloro-6-(2-methylmorpholino)pyridin-3-yl)-3-(5,6-difluoro-1H-indol-3-yl)urea]	200 to 1000 nM
O=C(Nc1cnc(C2CCC(F)(F)CC2)c(Cl)c1)Nc1c[nH]c2ccc(C(F)F)cc12 [Compound 159, 1-(5-chloro-6-(4,4-difluorocyclohexyl)pyridin-3-yl)-3-(5-(difluoromethyl)-1H-indol-3-yl)urea]	40 to 200 nM
Cc1cc(NC(=O)Nc2c[nH]c3cc(F)c(F)cc23)cnc1N1CC2(COC2)C1 [Compound 160, 1-(5,6-difluoro-1H-indol-3-yl)-3-(5-methyl-6-(2-oxa-6-azaspiro[3.3]heptan-6-yl)pyridin-3-yl)urea]	> 30000 nM
Cc1cc(NC(=O)Nc2c[nH]c3cc(F)c(F)cc23)cnc1N1CC2(CC(O)C2)C1 [Compound 161, 1-(5,6-difluoro-1H-indol-3-yl)-3-(6-(6-hydroxy-2-azaspiro[3.3]heptan-2-yl)-5-methylpyridin-3-yl)urea]	5000 to 100000 nM
Cc1cc(NC(=O)Nc2c[nH]c3cc(F)c(F)cc23)cnc1N1CC(F)(F)C1 [Compound 162, 1-(5,6-difluoro-1H-indol-3-yl)-3-(6-(3,3-difluoroazetidin-1-yl)-5-methylpyridin-3-yl)urea]	200 to 1000 nM
N#Cc1cc(NC(=O)Nc2c[nH]c3cc(F)c(F)cc23)cnc1N1CCC(F)(F)CC1 [Compound 163, 1-(5-cyano-6-(4,4-difluoropiperidin-1-yl)pyridin-3-yl)-3-(5,6-difluoro-1H-indol-3-yl)urea]	40 to 200 nM
Cc1cc(NC(=O)Nc2c[nH]c3ccc(CCO)cc23)cnc1N1CCC(F)(F)CC1 [Compound 164, 1-(6-(4,4-difluoropiperidin-1-yl)-5-methylpyridin-3-yl)-3-(5-(2-hydroxyethyl)-1H-indol-3-yl)urea]	1000 to 5000 nM
O=C(Nc1cnc(N2CCOCC2)c(Cl)c1)Nc1c[nH]c2cc(F)c(F)cc12 [Compound 165, 1-(5-chloro-6-morpholinopyridin-3-yl)-3-(5,6-difluoro-1H-indol-3-yl)urea]	200 to 1000 nM
Cc1cc(NC(=O)Nc2c[nH]c3cc(F)c(F)cc23)cnc1C1CCN(CC(F)(F)F)CC1 [Compound 166, 1-(5,6-difluoro-1H-indol-3-yl)-3-(5-methyl-6-(1-(2,2,2-trifluoroethyl)piperidin-4-yl)pyridin-3-yl)urea]	200 to 1000 nM
Cc1cc(NC(=O)Nc2c[nH]c3cc(F)c(F)cc23)cnc1N1CC2(C1)CC(F)(F)C2 [Compound 167, 1-(5,6-difluoro-1H-indol-3-yl)-3-(6-(6,6-difluoro-2-azaspiro[3.3]heptan-2-yl)-5-methylpyridin-3-yl)urea]	200 to 1000 nM
COc1cc(NC(=O)Nc2c[nH]c3cc(F)c(F)cc23)cnc1N1CC(F)(F)C1 [Compound 168, 1-(5,6-difluoro-1H-indol-3-yl)-3-(6-(3,3-difluoroazetidin-1-yl)-5-methoxypyridin-3-yl)urea]	200 to 1000 nM
Cc1cc(NC(=O)Nc2c[nH]c3cc(F)c(F)cc23)cnc1C1CCOCC1 [Compound 169, 1-(5,6-difluoro-1H-indol-3-yl)-3-(5-methyl-6-(tetrahydro-2H-pyran-4-yl)pyridin-3-yl)urea]	200 to 1000 nM
O=C(Nc1cnc(N2CCC(F)(F)CC2)c(Cl)c1)Nc1c[nH]c2cc(F)c(Cl)cc12 [Compound 170, 1-(5-chloro-6-(4.4-difluoropiperidin-1-yl)pyridin-3-yl)-3-(5-chloro-6-fluoro-1H-indol-3-yl)urea]	40 to 200 nM

SMILES	EC50
CS(=O)(=O)c1ccc2[nH]cc(NC(=O)Nc3cnc(N4CCC(F)(F)CC4)c(Cl)c3)c2c1 [Compound 171, 1-(5-chloro-6-(4,4-difluoropiperidin-1-yl)pyridin-3-yl)-3-(5-(methylsulfonyl)-1H-indol-3-yl)urea]	5000 to 100000 nM
C#CCC1CCN(c2ccc(NC(=O)Nc3c[nH]c4ccccc34)cn2)CC1 [Compound 172, 1-(1H-indol-3-yl)-3-(6-(4-(prop-2-yn-1-yl)piperidin-1-yl)pyridin-3-yl)urea]	200 to 1000 nM
O=C(Nc1cnc(C2CC(F)(F)C2)c(Cl)c1)Nc1c[nH]c2cc(F)c(F)cc12 [Compound 173, 1-(5-chloro-6-(3,3-difluorocyclobutyl)pyridin-3-yl)-3-(5,6-difluoro-1H-indol-3-yl)urea]	200 to 1000 nM
O=C(Nc1cnc(N2CCC(F)(F)CC2)c(Cl)n1)Nc1c[nH]c2ccc(Cl)cc12 [Compound 174, 1-(5-chloro-1H-indol-3-yl)-3-(6-chloro-5-(4,4-difluoropiperidin-1-yl)pyrazin-2-yl)urea]	40 to 200 nM
Cc1nc(NC(=O)Nc2c[nH]c3cc(F)c(F)cc23)cnc1N1CCC(F)(F)CC1 [Compound 175, 1-(5,6-difluoro-1H-indol-3-yl)-3-(5-(4,4-difluoropiperidin-1-yl)-6-methylpyrazin-2-yl)urea]	200 to 1000 nM
O=C(Nc1cnc(N2CCC3(CCCCO3)CC2)c(Cl)c1)Nc1c[nH]c2cc(F)c(F)cc12 [Compound 176, 1-(5-chloro-6-(1-oxa-9-azaspiro[5.5]undecan-9-yl)pyridin-3-yl)-3-(5,6-difluoro-1H-indol-3-yl)urea]	200 to 1000 nM
COCCC1CCN(c2ncc(NC(=O)Nc3c[nH]c4cc(F)c(F)cc34)cc2Cl)CC1 [Compound 177, 1-(5-chloro-6-(4-(2-methoxyethyl)piperidin-1-yl)pyridin-3-yl)-3-(5,6-difluoro-1H-indol-3-yl)urea]	40 to 200 nM
O=C(Nc1cnc(N2CCC(F)(F)CC2)nc1)Nc1c[nH]c2ccccc12 [Compound 178, 1-(2-(4,4-difluoropiperidin-1-yl)pyrimidin-5-yl)-3-(1H-indol-3-yl)urea]	1000 to 5000 nM
O=C(Nc1cnc(N2CCC(F)(F)CC2)nc1)Nc1c[nH]c2cc(F)c(F)cc12 [Compound 179, 1-(5,6-difluoro-1H-indol-3-yl)-3-(2-(4,4-difluoropiperidin-1-yl)pyrimidin-5-yl)urea]	200 to 1000 nM
O=C(Nc1cnc(N2CCC(F)(F)CC2)nc1)Nc1c[nH]c2ccc(Cl)cc12 [Compound 180, 1-(5-chloro-1H-indol-3-yl)-3-(2-(4,4-difluoropiperidin-1-yl)pyrimidin-5-yl)urea]	40 to 200 nM
N#Cc1ccc2[nH]cc(NC(=O)Nc3cnc(N4CCC(F)(F)CC4)c(Cl)c3)c2c1 [Compound 181, 1-(5-chloro-6-(4,4-difluoropiperidin-1-yl)pyridin-3-yl)-3-(5-cyano-1H-indol-3-yl)urea]	40 to 200 nM
CSc1ccc2[nH]cc(NC(=O)Nc3cnc(N4CCC(F)(F)CC4)c(Cl)c3)c2c1 [Compound 183, 1-(5-chloro-6-(4,4-difluoropiperidin-1-yl)pyridin-3-yl)-3-(5-(methylthio)-1H-indol-3-yl)urea]	40 to 200 nM
Cc1cc(NC(=O)Nc2c[nH]c3ccc(Br)cc23)cnc1N1CCC(F)(F)CC1 [Compound 184, 1-(5-bromo-1H-indol-3-yl)-3-(6-(4,4-difluoropiperidin-1-yl)-5-methylpyridin-3-yl)urea]	40 to 200 nM
COCCO[C@@H]1CCN(c2ncc(NC(=O)Nc3c[nH]c4cc(F)c(F)cc34)cc2Cl)C1 [Compound 185, (R)-1-(5-chloro-6-(3-(2-methoxyethoxy)pyrrolidin-1-yl)pyridin-3-yl)-3-(5,6-difluoro-1H-indol-3-yl)urea]	200 to 1000 nM
O=C(Nc1cnc(N2CC3(CCOC3)C2)c(Cl)c1)Nc1c[nH]c2cc(F)c(F)cc12 [Compound 186, 1-(5-chloro-6-(6-oxa-2-azaspiro[3.4]octan-2-yl)pyridin-3-yl)-3-(5,6-difluoro-1H-indol-3-yl)urea]	200 to 1000 nM
COC1(C)CN(c2ncc(NC(=O)Nc3c[nH]c4cc(F)c(F)cc34)cc2Cl)C1 [Compound 187, 1-(5-chloro-6-(3-methoxy-3-methylazetidin-1-yl)pyridin-3-yl)-3-(5,6-difluoro-1H-indol-3-yl)urea]	200 to 1000 nM

From US20230127839A1, “COMPOUNDS AND COMPOSITIONS FOR TREATING CONDITIONS ASSOCIATED WITH STING ACTIVITY” (IFM Due, Inc., priority 2019, published 2023)
